Values quoted from earlier work in US20250231185A1, “Coronavirus T Cell Epitopes, Megapools and Uses Thereof” (La Jolla Institute for Immunology, priority 2021, published 2025).

Tested on: CD8+ T cells
Conditions: CD8R (D) megapool epitopes; dominant = recognized by 3 or more donors/different studies; cited from earlier work
For 1690 (GTGPEAGLPY) [compound 1690], the Dominant is listed as “Yes (more dominant epitopes are defined by being recognized by 3 or more donors/different studies)”.
For 1682 (NTASWFTAL) [compound 1682], the Dominant is listed as “Yes (more dominant epitopes are defined by being recognized by 3 or more donors/different studies)”.
For 1698 (KPRQKRTAT) [compound 1698], the Dominant is listed as “Yes (more dominant epitopes are defined by being recognized by 3 or more donors/different studies)”.
For 1805 (YLYALVYFL) [compound 1805], the Dominant is given as “Yes (more dominant epitopes are defined by being recognized by 3 or more donors/different studies)”.
In the case of 1724 (DTDFVNEFY) [compound 1724], the Dominant is listed as “Yes (more dominant epitopes are defined by being recognized by 3 or more donors/different studies)”.
In the case of 1749 (KQFDTYNLW) [compound 1749], the Dominant is given as “Yes (more dominant epitopes are defined by being recognized by 3 or more donors/different studies)”.
In the case of 1808 (FTSDYYQLY) [compound 1808], the Dominant is listed as “Yes (more dominant epitopes are defined by being recognized by 3 or more donors/different studies)”.
In the case of 1722 (RLYYDSMSY) [compound 1722], the Dominant is given as “Yes (more dominant epitopes are defined by being recognized by 3 or more donors/different studies)”.
In the case of 1670 (FLFLTWICL) [compound 1670], the Dominant is given as “Yes (more dominant epitopes are defined by being recognized by 3 or more donors/different studies)”.
For 1767 (NYMPYFFTL) [compound 1767], the Dominant is listed as “Yes (more dominant epitopes are defined by being recognized by 3 or more donors/different studies)”.
In the case of 1688 (LSPRWYFYYL) [compound 1688], the Dominant is given as “Yes (more dominant epitopes are defined by being recognized by 3 or more donors/different studies)”.

Same assay, conditions: CD8RE megapool peptides (non-spike SARS-CoV-2 antigens); dominant epitope Yes/No; cited from earlier work
In the case of 2976 (VLWAHGFEL) [compound 2976], the Dominant is given as “Yes (more dominant epitopes are defined by being recognized by 3 or more donors/different studies)”.
In the case of 3017 (VLAWLYAAV) [compound 3017], the Dominant is listed as “Yes (more dominant epitopes are defined by being recognized by 3 or more donors/different studies)”.
For 2996 (FGDDTVIEV) [compound 2996], the Dominant is listed as “Yes (more dominant epitopes are defined by being recognized by 3 or more donors/different studies)”.
For 3052 (KLGSLVVRC) [compound 3052], the Dominant is given as “Yes (more dominant epitopes are defined by being recognized by 3 or more donors/different studies)”.
For 3022 (KLKDCVMYA) [compound 3022], the Dominant is given as “Yes (more dominant epitopes are defined by being recognized by 3 or more donors/different studies)”.
In the case of 3048 (KLFIRQEEV) [compound 3048], the Dominant is listed as “Yes (more dominant epitopes are defined by being recognized by 3 or more donors/different studies)”.
In the case of 3013 (TPKYKFVRI) [compound 3013], the Dominant is given as “Yes (more dominant epitopes are defined by being recognized by 3 or more donors/different studies)”.
For 3046 (QLRARSVSPK) [compound 3046], the Dominant is listed as “Yes (more dominant epitopes are defined by being recognized by 3 or more donors/different studies)”.
In the case of 2911 (SELVIGAVIL) [compound 2911], the Dominant is given as “Yes (more dominant epitopes are defined by being recognized by 3 or more donors/different studies)”.
For 2981 (SYATHSDKF) [compound 2981], the Dominant is listed as “Yes (more dominant epitopes are defined by being recognized by 3 or more donors/different studies)”.
For 2939 (MEVTPSGTW) [compound 2939], the Dominant is given as “Yes (more dominant epitopes are defined by being recognized by 3 or more donors/different studies)”.
In the case of 3043 (FTSDYYQLY) [compound 3043], the Dominant is listed as “Yes (more dominant epitopes are defined by being recognized by 3 or more donors/different studies)”.
For 3002 (NYMPYFFTL) [compound 3002], the Dominant is listed as “Yes (more dominant epitopes are defined by being recognized by 3 or more donors/different studies)”.
For 2950 (TMADLVYAL) [compound 2950], the Dominant is listed as “Yes (more dominant epitopes are defined by being recognized by 3 or more donors/different studies)”.
In the case of 3021 (MPASWVMRI) [compound 3021], the Dominant is listed as “Yes (more dominant epitopes are defined by being recognized by 3 or more donors/different studies)”.
In the case of 2919 (FPRGQGVPI) [compound 2919], the Dominant is listed as “Yes (more dominant epitopes are defined by being recognized by 3 or more donors/different studies)”.
In the case of 3006 (QLMCQPILLL) [compound 3006], the Dominant is given as “Yes (more dominant epitopes are defined by being recognized by 3 or more donors/different studies)”.
For 2969 (VVYRGTTTYK) [compound 2969], the Dominant is given as “Yes (more dominant epitopes are defined by being recognized by 3 or more donors/different studies)”.
In the case of 2956 (VVDKYFDCY) [compound 2956], the Dominant is listed as “Yes (more dominant epitopes are defined by being recognized by 3 or more donors/different studies)”.

Same assay, conditions: HLA-A*01:01 epitopes overlapping TTDPSFLGRY; Saini et al.; cited from earlier work
In the case of TTDPSFLGRYM [nsp3 819-829], the dominance as reported is listed as “particularly dominant”.

Same assay, conditions: Habel et al., 14 peptides screened; HLA-A*02:01; cited from earlier work
In the case of “ORF1ab 3183-3191: SARS-CoV-2 ORF1ab 3183-3191 CD8 epitope among 14 peptides screened in the Habel et al. study (FLLNKEMYL; CD8 epitope peptide; UniProt P0DTD1 3183-3191, looked up, fragment) [reference compound]”, the IFN-f response is given as “less prominently recognized”.

Same assay, conditions: SARS-CoV-2-derived CD8 epitopes; dominant = recognized by 3 or more donors/different studies; cited from earlier work
For 670 (YLATALLTL) [compound 670], the Dominant is listed as “Yes (more dominant epitopes are defined by being recognized by 3 or more donors/different studies)”.
For 696 (FADDLNQLTGY) [compound 696], the Dominant is listed as “Yes (more dominant epitopes are defined by being recognized by 3 or more donors/different studies)”.
For 501 (LSPRWYFYYL) [compound 501], the Dominant is listed as “Yes (more dominant epitopes are defined by being recognized by 3 or more donors/different studies)”.
In the case of 541 (MEVTPSGTW) [compound 541], the Dominant is listed as “Yes (more dominant epitopes are defined by being recognized by 3 or more donors/different studies)”.
For 520 (LLLDRLNQL) [compound 520], the Dominant is given as “Yes (more dominant epitopes are defined by being recognized by 3 or more donors/different studies)”.

Same assay, conditions: SARS-CoV-2 Ag S; T cell type recognizing the epitope; cited from earlier work
In the case of 1341 (STGSNVFQTR) [compound 1341], the Restriction is given as “CD8”.
In the case of 1332 (NTSNQVAVLY) [compound 1332], the Restriction is given as “CD8”.
For 1444 (WFVTQRNFY) [compound 1444], the Restriction is listed as “CD8”.
In the case of 1369 (TQLNRALTGI) [compound 1369], the Restriction is given as “CD8”.
In the case of 1435 (TYVPAQEKNFT) [compound 1435], the Restriction is given as “CD8”.
In the case of 1467 (EPVLKGVKL) [compound 1467], the Restriction is given as “CD8”.
In the case of 1337 (QLTPTWRVY) [compound 1337], the Restriction is listed as “CD8”.
For 1336 (IHADQLTPTW) [compound 1336], the Restriction is given as “CD8”.
In the case of 1358 (IAIPTNFTI) [compound 1358], the Restriction is given as “CD8”.
In the case of 1376 (IYKTPPIKDF) [compound 1376], the Restriction is given as “CD8”.
In the case of 1432 (HVTYVPAQEK) [compound 1432], the Restriction is listed as “CD8”.
In the case of 1356 (AYSNNSIAI) [compound 1356], the Restriction is given as “CD8”.
In the case of 1404 (SVLNDILSRL) [compound 1404], the Restriction is given as “CD8”.
For 1468 (VLKGVKLHY) [compound 1468], the Restriction is given as “CD8”.
For 1322 (FELLHAPATV) [compound 1322], the Restriction is given as “CD8”.
In the case of 1430 (GVVFLHVTY) [compound 1430], the Restriction is listed as “CD8”.
For 1456 (LQELGKYEQY) [compound 1456], the Restriction is given as “CD8”.

Same assay, conditions: T cell subset (CD4 or CD8) recognizing the SARS-CoV-2-derived epitope; cited from earlier work
For 530 (DYKHWPQIAQF) [compound 530], the Restriction is listed as “CD8”.
In the case of 672 (ARAGEAANF) [compound 672], the Restriction is given as “CD8”.
In the case of 698 (DVVAIDYKHY) [compound 698], the Restriction is listed as “CD8”.
For 556 (AADLDDFSKQL) [compound 556], the Restriction is listed as “CD8”.
In the case of 675 (LGDVRETMSY) [compound 675], the Restriction is given as “CD8”.
For 654 (QVVDMSMTY) [compound 654], the Restriction is given as “CD8”.
For 536 (APSASAFFGM) [compound 536], the Restriction is listed as “CD8”.
In the case of 670 (YLATALLTL) [compound 670], the Restriction is given as “CD8”.
For 516 (SQASSRSSSR) [compound 516], the Restriction is given as “CD8”.
For 522 (KSAAEASKK) [compound 522], the Restriction is listed as “CD8”.
In the case of 696 (FADDLNQLTGY) [compound 696], the Restriction is given as “CD8”.
In the case of 570 (AIILASFSAST) [compound 570], the Restriction is given as “CD8”.
In the case of 503 (YLGTGPEAGL) [compound 503], the Restriction is given as “CD8”.
In the case of 578 (EIKESVQTF) [compound 578], the Restriction is listed as “CD8”.
For 501 (LSPRWYFYYL) [compound 501], the Restriction is given as “CD8”.
In the case of 659 (HTTDPSFLGR) [compound 659], the Restriction is given as “CD8”.
For 541 (MEVTPSGTW) [compound 541], the Restriction is given as “CD8”.
In the case of 616 (NLYDKLVSSFL) [compound 616], the Restriction is listed as “CD8”.
In the case of 546 (KLDDKDPNF) [compound 546], the Restriction is listed as “CD8”.
In the case of 576 (TVYEKLKPV) [compound 576], the Restriction is given as “CD8”.
In the case of 520 (LLLDRLNQL) [compound 520], the Restriction is listed as “CD8”.

Same assay, conditions: T cell type (CD4 or CD8) recognizing the SARS-CoV-2 epitope; cited from earlier work
For 963 (YRYNLPTM) [compound 963], the Restriction is given as “CD8”.
For 1015 (SRYWEPEF) [compound 1015], the Restriction is listed as “CD8”.
In the case of 915 (GPKVKYLYF) [compound 915], the Restriction is listed as “CD8”.
In the case of 1073 (TTLPVNVAF) [compound 1073], the Restriction is given as “CD8”.
For 972 (NVIPTITQM) [compound 972], the Restriction is given as “CD8”.
For 954 (NLHSSRLSF) [compound 954], the Restriction is given as “CD8”.
In the case of 1063 (SLYVNKHAF) [compound 1063], the Restriction is given as “CD8”.
In the case of 997 (LRKHFSMMI) [compound 997], the Restriction is given as “CD8”.
For 1062 (FTDGVCLFW) [compound 1062], the Restriction is listed as “CD8”.
In the case of 1099 (NPIQLSSYSL) [compound 1099], the Restriction is given as “CD8”.
For 1097 (FWRNTNPIQL) [compound 1097], the Restriction is listed as “CD8”.
For 1054 (PFMIDVQQW) [compound 1054], the Restriction is listed as “CD8”.
In the case of 996 (YAYLRKHF) [compound 996], the Restriction is listed as “CD8”.
In the case of 975 (YAISAKNRAR) [compound 975], the Restriction is listed as “CD8”.
For 1048 (EEAIRHVRAW) [compound 1048], the Restriction is given as “CD8”.
